According to ChEMBL document CHEMBL5634101, “Discovery of NLRP3 inhibitors using machine learning: Identification of a hit compound to treat NLRP3 activation-driven diseases” (Eur J Med Chem, 2023):
pIC50: −log10 of the molar value.

Biological target: NACHT, LRR and PYD domains-containing protein 3 (Homo sapiens, UniProt Q96P20)
Assay: Inhibition of NLRP3 inflammasome activation in PMA-differentiated human THP-1 cells assessed as reduction in IL-1beta secretion pre-stimulated with PMA for 24 hrs followed by compound addition and measured after 30 mins by ELISA
Type: cell-based

Sequence of NACHT, LRR and PYD domains-containing protein 3 (Q96P20 whole entry, the tested form may be a part): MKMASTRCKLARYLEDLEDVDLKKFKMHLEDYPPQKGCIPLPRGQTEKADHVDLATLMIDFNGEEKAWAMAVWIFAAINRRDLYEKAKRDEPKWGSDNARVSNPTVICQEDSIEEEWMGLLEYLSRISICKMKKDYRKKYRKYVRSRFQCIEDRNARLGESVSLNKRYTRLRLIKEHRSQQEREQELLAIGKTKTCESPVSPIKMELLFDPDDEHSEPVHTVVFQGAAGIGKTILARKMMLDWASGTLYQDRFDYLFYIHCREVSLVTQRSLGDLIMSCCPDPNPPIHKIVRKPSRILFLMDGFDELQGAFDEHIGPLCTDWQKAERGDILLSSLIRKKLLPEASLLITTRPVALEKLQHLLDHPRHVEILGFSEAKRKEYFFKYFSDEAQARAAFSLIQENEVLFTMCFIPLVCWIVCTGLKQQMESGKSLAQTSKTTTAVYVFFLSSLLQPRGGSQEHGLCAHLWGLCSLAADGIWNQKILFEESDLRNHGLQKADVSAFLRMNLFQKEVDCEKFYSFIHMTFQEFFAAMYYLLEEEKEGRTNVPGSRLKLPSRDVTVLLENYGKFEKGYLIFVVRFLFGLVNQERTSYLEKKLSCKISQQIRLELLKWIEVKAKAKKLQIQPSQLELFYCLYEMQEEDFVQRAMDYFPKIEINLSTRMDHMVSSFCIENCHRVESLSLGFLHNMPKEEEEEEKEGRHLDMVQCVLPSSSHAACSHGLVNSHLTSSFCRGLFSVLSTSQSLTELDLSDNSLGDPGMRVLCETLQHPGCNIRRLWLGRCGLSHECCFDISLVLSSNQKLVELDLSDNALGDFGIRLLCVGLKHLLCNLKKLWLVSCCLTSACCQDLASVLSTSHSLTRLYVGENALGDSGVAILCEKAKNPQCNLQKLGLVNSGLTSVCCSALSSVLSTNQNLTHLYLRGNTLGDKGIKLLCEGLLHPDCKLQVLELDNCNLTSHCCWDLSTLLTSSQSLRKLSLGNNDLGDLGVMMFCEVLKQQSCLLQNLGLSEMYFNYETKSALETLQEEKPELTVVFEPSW

With `O=C(O)CCCCCN1C(=O)/C(=C/c2c[nH]c3ccccc23)SC1=S` the pIC50 was 4.86.
